Data on four compounds can be found in patent US7556795B2, “Radiopharmaceutical formulations” (Bracco Imaging S.p.A., priority 2002, dated 2009).

SMILES strings stand for the structures.

A short description of the data set: Radiochemical purity (RCP) of 99mTc labeled peptide by HPLC. The following applies: 99mTc complex, 4 μg ligand, 300 μL EtOH, ~40 mCi 99mTcO4-, average of multiple experiments; for Percent RCP at 6 hours: prepared at room temperature; for Percent RCP at 15 min: room temperature 15 min. It is filed as physicochemical. The procedure: To prepare the ^99mTc complex of Compound 1, 300 μL of ethanol, 50 μL of ligand solution (4 μg Compound 1), 200 μL of gentisic acid solution (20 mg), 50 μL of hydroxypropyl-γ-cyclodextrin solution (2.5 mg) 100 μL of stannous gluconate solution (40 μg of SnCl2), and ^99mTcO4^− (˜40 mCi) was added. Water was added to bring the final volume to 1.0 mL, and the reaction was heated at 100° C. for 15-20 min.
The ^99mTc labeled peptide purity was determined by HPLC using a Vydac C18 protein and peptide analytical column, 300 A pore size, 4.6×250 mm column length. The following gradient (flow rate 1 mL/min) was used: Isocratic elution 78% H2O (0.1% TFA)/22% CH3CN (0.1% TFA) for 20 min, gradient from 78% to 40% CH3CN (0.1% TFA) over 5 min, hold at 40% CH3CN (0.1% TFA) for 10 min, ramp from 40% to 78% CH3CN (0.1% TFA) over 5 min.
To prepare the ^99mTc complex, 50 μL of ligand solution (4 μg Compound 1-4), 300 μL of EtOH, 250 μL of gentisic acid solution (20 mg), 50 μL of 1SnCl2: 34 Gluconic acid (40 μg of SnCl2), and ^99mTcO4^− (˜40 mCi, Syncor) was added. Water was added to bring the final volume to 1.0 mL, and the reaction was allowed to stand at room temperature for 15 min. The solutions were then analyzed for RCP as described in Example 2.
To 50 μL of the Compound 1 solution (4 μg) was added ^99mTcO4^− (190 μL, 41.5 mCi), 0.458 mL of H2O, 50 μL of the stannous gluconate solution (40 μg of SnCl2) and 262 μL of gentisic acid solution (20 mg). The reaction was heated at 100° for 5 min. prior to HPLC analysis, which was performed using the following system: Vydac C-18 Protein and Peptide column (4.6×250 mm) eluted with 78% H2O (0.1% TFA)/22% CH3CN (0.1% TFA) for 20′, ramped from 78% to 40% H2O (0.1% TFA) in 5′, held at 40% H2O (0.1% TFA) for 10′, then ramped from 40% to 78% H2O (0.1% TFA) in 5′. Flow rate: 1 mL/min. The resulting RCP was 87.4% initially and 87.1% at 6 hours. The recovery from the vial was 67%.

Regarding `CSCCC(NC(=O)[C@H](CC(C)C)NC(=O)[C@H](Cc1cnc[nH]1)NC(=O)CNC(=O)[C@@H](NC(=O)[C@H](C)NC(=O)[C@H](Cc1c[nH]c2ccccc12)NC(=O)[C@H](CCC(N)=O)NC(=O)CCCCNC(=O)CNC(=O)[C@H](CS)NC(=O)[C@H](CO)NC(=O)CN(C)C)C(C)C)C(N)=O` (stereo partly shown) [Compound 1], the “Percent RCP at 6 hours” value came out at 88.1%. Turning to `CSCC[C@H](NC(=O)[C@H](CC(C)C)NC(=O)[C@H](Cc1cnc[nH]1)NC(=O)CNC(=O)[C@@H](NC(=O)[C@H](C)NC(=O)[C@H](Cc1c[nH]c2ccccc12)NC(=O)[C@H](CCC(N)=O)NC(=O)CCCCNC(=O)CNC(=O)[C@H](CS)NC(=O)CNC(=O)CN(C)C)C(C)C)C(N)=O` [Compound 2], the “Percent RCP at 6 hours” value is 78.7% and the “Percent RCP at 15 min” value was determined as 80.8%.

With `CSCC[C@H](NC(=O)[C@H](CC(C)C)NC(=O)[C@H](Cc1cnc[nH]1)NC(=O)CNC(=O)[C@@H](NC(=O)[C@H](C)NC(=O)[C@H](Cc1c[nH]c2ccccc12)NC(=O)[C@H](CCC(N)=O)NC(=O)CCCCNC(=O)CNC(=O)[C@H](CS)NC(=O)[C@H](CO)NC(=O)CN)C(C)C)C(N)=O` [Compound 3], the “Percent RCP at 6 hours” value stood at 82.4% and the “Percent RCP at 15 min” value is given as 86.7%. On the same counts, the results for `CSCC[C@H](NC(=O)[C@H](CC(C)C)NC(=O)[C@H](Cc1cnc[nH]1)NC(=O)CNC(=O)[C@@H](NC(=O)[C@H](C)NC(=O)[C@H](Cc1c[nH]c2ccccc12)NC(=O)[C@H](CCC(N)=O)NC(=O)CCCCNC(=O)CNC(=O)[C@H](CS)NC(=O)CNC(=O)CN)C(C)C)C(N)=O` [Compound 4] are 83.3% and 83.3%.
